How the values were obtained:
Test in all cases: relative viability (nuclei count vs DMSO), 5 days (fraction); higher = more cells survive
Wnt-C59 + Foretinib = compound: CC1=NC=CC(=C1)C2=CC=C(C=C2)CC(=O)NC3=CC=C(C=C3)C4=CN=CC=C4 [Wnt-C59] + COc1cc2c(Oc3ccc(NC(=O)C4(C(=O)Nc5ccc(F)cc5)CC4)cc3F)ccnc2cc1OCCCN1CCOCC1 [Foretinib] (partner 0.25 µM)
Procedure, shortened: (§1)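 For relative viability, nuclei counts in treated wells were divided by those in vehicle wells. Lung cancer cell lines had been pin-tool dosed in 1536-well plates the day after seeding and cultured for 5 days, then fixed and stained in one step (final 0.05% Triton X-100, 1% formaldehyde, 1 ug/ml Hoechst) and imaged at 4×. Doses were one drug alone or a fixed anchor-drug dose plus five library-drug doses (not always all listed) in √10 steps, and values are duplicate-plate medians.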

Lapatinib + Phenformin = compound: CS(=O)(=O)CCNCc1ccc(-c2ccc3ncnc(Nc4ccc(OCc5cccc(F)c5)c(Cl)c4)c3c2)o1 [Lapatinib] + N=C(N)NC(=N)NCCc1ccccc1 [Phenformin] (partner 250 µM)
Procedure, shortened: as §1

Wnt-C59 + Phenformin = compound: CC1=NC=CC(=C1)C2=CC=C(C=C2)CC(=O)NC3=CC=C(C=C3)C4=CN=CC=C4 [Wnt-C59] + N=C(N)NC(=N)NCCc1ccccc1 [Phenformin] (partner 250 µM)
Procedure, shortened: as §1

Wnt-C59 = compound: CC1=NC=CC(=C1)C2=CC=C(C=C2)CC(=O)NC3=CC=C(C=C3)C4=CN=CC=C4 [Wnt-C59]
Procedure, shortened: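 Viability was defined as treated-well nuclei divided by vehicle-well nuclei, with the median taken over replicate plates. Cells from lung cancer lines sat overnight at 37 °C in 1536-well plates, received five √10-spaced library-drug doses by pinning on vehicle-anchored plates, and grew 5 days without medium change before one-step fixation, permeabilisation and Hoechst staining, 4× imaging and MetaXpress nuclear counts. Only plates with control CV under 25% and at least one doubling were kept.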

Cell Line	relative viability (Wnt-C59 + Foretinib; first compound 0.001 µM)	relative viability (Wnt-C59 + Foretinib; first compound 0.01 µM)	relative viability (Wnt-C59 + Foretinib; first compound 0.03162 µM)	relative viability (Wnt-C59 + Foretinib; first compound 0.1 µM)	relative viability (Lapatinib + Phenformin; first compound 0.02 µM)	relative viability (Lapatinib + Phenformin; first compound 0.06325 µM)	relative viability (Lapatinib + Phenformin; first compound 0.2 µM)	relative viability (Lapatinib + Phenformin; first compound 0.6325 µM)	relative viability (Lapatinib + Phenformin; first compound 2 µM)	relative viability (Wnt-C59 + Phenformin; first compound 0.001 µM)	relative viability (Wnt-C59 + Phenformin; first compound 0.01 µM)	relative viability (Wnt-C59 + Phenformin; first compound 0.03162 µM)	relative viability (Wnt-C59 + Phenformin; first compound 0.1 µM)	relative viability (Wnt-C59; 0.001 µM)	relative viability (Wnt-C59; 0.01 µM)	relative viability (Wnt-C59; 0.03162 µM)	relative viability (Wnt-C59; 0.1 µM)
201T	1.19	1.15	1.04	1.15	0.387	0.343	0.438	0.44	0.431	0.446	0.43	0.424	0.452	0.972	0.958	0.982	0.976
A549	1.09	0.969	0.974	0.906			0.192	0.137	0.112	0.213	0.144	0.253	0.169	0.966	0.978	1.01	0.893
A-427	1.02	0.977	1.29	1.24		0.279	0.346	0.317	0.367	0.334	0.338	0.407	0.384	0.965	0.817	1.05	1.04
ABC-1	0.982	1.16	1.07	0.97	0.25	0.25	0.223	0.215	0.21	0.237	0.248	0.257	0.262	0.938	1.01	1.01	0.952
BEN	0.877	0.615	0.786	0.747		0.301	0.26	0.241	0.229	0.292	0.27	0.269	0.247	0.936	1	1.02	1.07
CAL-12T	1.28	1.1	1.06	1.09		0.474	0.5	0.404	0.337	0.564	0.581	0.576	0.566	0.975	1.04	0.965	1.04
COR-L23	0.993	0.916	0.853	0.913	0.419	0.421	0.474	0.455	0.42	0.427	0.471	0.442	0.416	0.961	1.01	1.07	0.963
COR-L 105	1.13	0.722	1.03	0.911	0.486	0.336	0.418	0.289	0.275	0.48	0.509	0.477	0.479	0.992	0.948	0.94	0.921
Calu-6	0.856	0.903	0.936	0.834										1.02	1.01	1.05	0.987
ChaGo-K-1	1.01	0.872	0.978	0.996	0.379	0.386	0.465	0.454	0.414	0.557	0.466	0.531	0.539	0.951	1.01	1.03	0.958
EBC-1	0.112	0.11	0.126	0.106										1.08	0.995	1.02	0.904
EKVX	0.763	0.725	0.833	0.714	0.185	0.218	0.242	0.235	0.146	0.225	0.216	0.216	0.241	1.03	0.759	1.01	0.832
EMC-BAC-2	0.946	0.964	0.967	0.561	0.422	0.407	0.532	0.549	0.499	0.533	0.484	0.525	0.505	0.891	0.874	0.868	0.962
EPLC-272H	0.722	0.667	0.831	0.697			0.243	0.266	0.241	0.297	0.303	0.335	0.335	1.01	0.886	1.15	0.987
H3255	0.944	0.892	1.12	0.951	0.37	0.327	0.314	0.299	0.224	0.372	0.321	0.356	0.332	1.03	0.887	1.06	0.966
HARA	0.823	0.765	1.01	0.841		0.307	0.434	0.399	0.337	0.458	0.49	0.528	0.447	0.952	0.874	1.19	1.02
HCC-15	1.09	1.09	1.04	0.992		0.398	0.521	0.498	0.484	0.47	0.515	0.48	0.438	1.05	1.01	1.07	0.981
HCC-44						0.189	0.211	0.172	0.235	0.315	0.201	0.153	0.23	1.04	0.972	0.979	1.04
HCC-78	0.496	0.511	0.518	0.515		0.631	0.588	0.856	0.654	0.548	0.685	0.701	0.72	0.814	1.02	0.99	1.12
HCC-366	0.896	0.975	0.922	0.89		0.642	0.633	0.594	0.559	0.614	0.605	0.668	0.528	0.993	0.997	1.06	0.976
